Test results taken from patent US11214803B2, “Modulators of YAP1 expression” (Ionis Pharmaceuticals, Inc., priority 2019, dated 2022).
Strand notation (5' to 3'): a small letter for the sugar, then the base; units joined by * are phosphorothioate-linked, units joined directly phosphodiester-linked; [ ] holds rarer units or linkages, { } end groups; capitals alone tell only the bases. e = 2'-O-(2-methoxyethyl) (MOE); k = constrained ethyl (cEt); [5mC] = 5-methylcytosine; d = 2'-deoxy (DNA); m = 2'-O-methyl

Each substance was assayed on Yap1 mRNA (assay: Antisense inhibition of human Yap1 in SNU-449 cells by modified oligonucleotides, single dose (Example 5, RTS36584)). Details: Table 39; SNU-449 cells, 10,000 cells per well, free uptake, 2,000 nM oligonucleotide, approx. 48 hours; RTS36584; normalized to RIBOGREEN; Yap1 mRNA relative to untreated control.
Assay type: cell-based
Procedure, shortened: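 SNU-449 cells were given 2,000 nM oligonucleotide by free uptake for about 48 h. Yap1 mRNA was then measured by RT-qPCR with primer probe set RTS36584, normalized to total RNA by RIBOGREEN and expressed as percent of untreated control.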

Point of comparison: “1198393 (kT*dT*dA*d[5mC]*dA*dT*dT*dA*dG*dG*dA*kA*e[5mC]*kA*eA*kG; antisense) [Compound 1198393]”, “YAP1 (% UTC)” value 58 % UTC. Against it:
- 1198434 (kT*dG*dT*dA*dA*dT*dA*dT*dT*dG*d[5mC]*kA*eA*kT*e[5mC]*kT) [Compound 1198434] — higher, 78 % UTC
- 1198422 (k[5mC]*dT*dT*dA*dT*dA*dT*dG*dG*dT*dT*kT*eT*kG*eT*kG; antisense) [Compound 1198422] — lower, 18 % UTC
- 1198399 (kA*dG*d[5mC]*dA*d[5mC]*dT*dT*dT*dT*dA*d[5mC]*kA*eT*kT*eA*kG; antisense) [Compound 1198399] — lower, 35 % UTC

Same assay, conditions: Table 40 (separate experiment); SNU-449 cells, 10,000 cells per well, free uptake, 2,000 nM oligonucleotide, approx. 48 hours; RTS36584; normalized to RIBOGREEN; Yap1 mRNA relative to untreated control

Point of comparison: “1198427 (k[5mC]*dA*dA*d[5mC]*dT*d[5mC]*dT*dT*dA*dT*dA*kT*eG*kG*eT*kT; antisense) [Compound 1198427]”, “YAP1 (% UTC)” value 62 % UTC. Against it:
- 1198746 (kG*e[5mC]*kA*d[5mC]*dT*dT*dT*dT*dA*d[5mC]*dA*dT*eT*eA*kG*kG; antisense) [Compound 1198746] — lower, 7 % UTC
- 1198763 (kG*eA*kT*dT*dT*dA*dG*dG*dA*dT*dG*d[5mC]*eA*eT*kG*kG; antisense) [Compound 1198763] — lower, 26 % UTC
- 1198732 (kT*eA*kT*dA*dA*d[5mC]*dT*dG*dG*dG*d[5mC]*dA*eA*eA*kT*kT; antisense) [Compound 1198732] — higher, 86 % UTC
- 1198741 (kT*eT*kA*d[5mC]*dA*dT*dT*dA*dG*dG*dA*dA*e[5mC]*eA*kA*kG; antisense) [Compound 1198741] — lower, 60 % UTC

Same assay, conditions: Table 41; SNU-449 cells, 10,000 cells per well, free uptake, 2,000 nM modified oligonucleotide, approximately 48 hours; RTS36584; normalized to RIBOGREEN; Yap1 mRNA relative to untreated control cells

Point of comparison: “1198628 (TGTCTCATGCCTTATA; modified gapmer, chemistry not fully specified) [Compound 1198628]”, “YAP1 (% UTC)” value 27 % UTC. Against it:
- 1198774 (kA*eA*k[5mC]*dT*d[5mC]*dT*dT*dA*dT*dA*dT*dG*eG*eT*kT*kT; antisense) [Compound 1198774] — higher, 106 % UTC

Same assay, conditions: Table 42 (separate experiment); SNU-449 cells, 10,000 cells per well, free uptake, 2,000 nM modified oligonucleotide, approximately 48 hours; RTS36584; normalized to RIBOGREEN; Yap1 mRNA relative to untreated control cells

Point of comparison: “1198707 (kA*kA*dG*dT*dA*dA*dG*dG*dT*dT*dT*d[5mC]*k[5mC]*e[5mC]*kA*eG; antisense) [Compound 1198707]”, “YAP1 (% UTC)” value 31 % UTC. Against it:
- 1198712 (kA*kG*dA*d[5mC]*dT*dA*dA*dG*dT*dA*dA*dG*kG*eT*kT*eT; antisense) [Compound 1198712] — higher, 110 % UTC
- 1198700 (kT*kA*dA*dA*dG*dT*dG*dT*dA*dT*dG*dT*k[5mC]*eA*kG*eA; antisense) [Compound 1198700] — lower, 26 % UTC
- 1198221 (kT*kT*dA*d[5mC]*dA*dT*dT*dA*dG*dG*dA*eA*e[5mC]*eA*kA*kG) [Compound 1198221] — higher, 95 % UTC
- 1198227 (kA*kG*d[5mC]*dA*d[5mC]*dT*dT*dT*dT*dA*d[5mC]*eA*eT*eT*kA*kG; antisense) [Compound 1198227] — higher, 104 % UTC
- 1198709 (k[5mC]*kT*dA*dA*dG*dT*dA*dA*dG*dG*dT*dT*kT*e[5mC]*k[5mC]*e[5mC]; antisense) [Compound 1198709] — lower, 29 % UTC
- 1198228 (kA*kA*dG*d[5mC]*dA*d[5mC]*dT*dT*dT*dT*dA*e[5mC]*eA*eT*kT*kA) [Compound 1198228] — higher, 54 % UTC

Same assay, conditions: Table 43 experiment; SNU-449 cells, 10,000 cells per well, free uptake, 2,000 nM, approximately 48 hours; RTS36584; Yap1 mRNA normalized to RIBOGREEN, relative to untreated control cells

“1198258 (kA*kT*dA*dT*dT*dG*d[5mC]*dA*dA*dT*d[5mC]*eT*eG*eT*k[5mC]*kT; antisense) [Compound 1198258]” was tested, and the “YAP1 (% UTC)” value was 52 % UTC.

Same assay, conditions: Table 44 experiment; SNU-449 cells, 10,000 cells per well, free uptake, 2,000 nM, approximately 48 hours; RTS36584; Yap1 mRNA normalized to RIBOGREEN, relative to untreated control cells

Point of comparison: “1198529 (kT*kT*dA*dA*dA*dG*dT*dG*dT*dA*dT*eG*kT*e[5mC]*kA*eG; antisense) [Compound 1198529]”, “YAP1 (% UTC)” value 17 % UTC. Against it:
- 1198506 (kA*kT*dA*dT*dG*dG*dT*dT*dT*dT*dG*eT*kG*eT*kG*eT; antisense) [Compound 1198506] — higher, 47 % UTC

Same assay, conditions: Table 45; Yap1 mRNA as percent of untreated control, SNU-449 cells, single dose

Point of comparison: “1198963 (kT*kT*dA*dA*dA*dG*dT*dG*dT*dA*dT*kG*dT*k[5mC]*dA*kG; antisense) [Compound 1198963]”, “YAP1 (% UTC)” value 27 % UTC. Against it:
- 1095509 (antisense kT*kG*dA*dG*dG*dT*dA*dT*dA*dA*d[5mC]*kT*dG*kG*dG*k[5mC]) [Compound 1095509] — higher, 29 % UTC
- 1198956 (kT*kA*dT*dG*dT*dA*dA*dT*dA*dT*dT*kG*d[5mC]*kA*dA*kT; antisense) [Compound 1198956] — higher, 76 % UTC
- 1198950 (kA*kT*dA*dT*dT*dG*d[5mC]*dA*dA*dT*d[5mC]*kT*dG*kT*d[5mC]*kT; antisense) [Compound 1198950] — higher, 85 % UTC

Same assay, conditions: Table 46; Yap1 mRNA as percent of untreated control, SNU-449 cells, single dose

Point of comparison: “1198828 (kT*kT*dT*dT*dA*d[5mC]*dA*dT*dT*dA*dG*kG*eA*kA*e[5mC]*kA; antisense) [Compound 1198828]”, “YAP1 (% UT)” value 59 % UT. Against it:
- 1198857 (kT*k[5mC]*dT*dT*dA*dT*dA*dT*dG*dG*dT*kT*eT*kT*eG*kT; antisense) [Compound 1198857] — lower, 19 % UT

Same assay, conditions: Table 48; Yap1 mRNA level relative to untreated control; modified oligonucleotides targeting SEQ ID NO.: 1 and 2

Point of comparison: “1198322 (kG*kT*kG*d[5mC]*dT*dT*dT*dG*dG*dA*dA*dG*kA*eT*k[5mC]*eT; antisense) [Compound 1198322]”, “YAP1 (% UT)” value 48 % UT. Against it:
- 1198346 (kT*kA*kA*dT*dA*dT*dT*dG*d[5mC]*dA*dA*dT*k[5mC]*eT*kG*eT; antisense) [Compound 1198346] — lower, 40 % UT

Same assay, conditions: Table 49; Yap1 mRNA level relative to untreated control; modified oligonucleotides targeting SEQ ID NO.: 1 and 2

Point of comparison: “1198351 (kT*kT*kT*dA*dT*dG*dT*dA*dA*dT*dA*dT*kT*eG*k[5mC]*eA; antisense) [Compound 1198351]”, “YAP1 (% UT)” value 40 % UT. Against it:
- 1198575 (antisense kT*kT*kG*dG*dA*dA*dG*dA*dT*d[5mC]*dT*dG*kA*kA*kA*e[5mC]) [Compound 1198575] — higher, 94 % UT

Same assay, conditions: Table 50; Yap1 mRNA remaining as percent of untreated control (UT), SNU-449 cells, single dose

Point of comparison: “1198560 (antisense kT*kA*kT*dA*dA*d[5mC]*dT*dG*dG*dG*d[5mC]*dA*kA*kA*kT*eT) [Compound 1198560]”, “YAP1 (% UT)” value 53 % UT. Against it:
- 1198592 (antisense kA*kT*kA*dT*dG*dG*dT*dT*dT*dT*dG*dT*kG*kT*kG*eT) [Compound 1198592] — lower, 50 % UT
- 1197228 (antisense kA*kA*kT*dT*mG*dT*d[5mC]*dT*d[5mC]*dA*dT*dG*d[5mC]*k[5mC]*kT*kT) [Compound 1197228] — lower, 25 % UT
- 1198611 (antisense kA*kG*kT*dG*dT*dA*dT*dG*dT*d[5mC]*dA*dG*kA*kA*kG*eA) [Compound 1198611] — lower, 7 % UT
- 1198615 (antisense kT*kT*kA*dA*dA*dG*dT*dG*dT*dA*dT*dG*kT*k[5mC]*kA*eG) [Compound 1198615] — lower, 10 % UT
- 1197231 (antisense kA*kT*kG*dG*mA*dA*dA*dT*dT*dG*dT*d[5mC]*dT*k[5mC]*kA*kT) [Compound 1197231] — lower, 50 % UT

Same assay, conditions: Table 51; Yap1 mRNA remaining as percent of untreated control (UT), SNU-449 cells, single dose

Point of comparison: “1197315 (kA*kA*k[5mC]*dT*mU*dT*dA*dA*dA*dG*dT*dG*dT*kA*kT*kG; antisense) [Compound 1197315]”, “YAP1 (% UT)” value 116 % UT. Against it:
- 1197311 (kT*kT*kT*dA*mU*dG*dT*dA*dA*dT*dA*dT*dT*kG*k[5mC]*kA; antisense) [Compound 1197311] — lower, 27 % UT
- 1197259 (kA*kT*kA*dT*mG*dG*dT*dT*dT*dT*dG*dT*dG*kT*kG*kT) [Compound 1197259] — lower, 59 % UT
- 1197257 (antisense kT*k[5mC]*kA*dG*mA*dT*dT*dT*dA*dG*dG*dA*dT*kG*k[5mC]*kA) [Compound 1197257] — lower, 20 % UT
- 1197316 (kT*kA*kA*dG*mU*dA*dA*dG*dG*dT*dT*dT*d[5mC]*k[5mC]*k[5mC]*kA; antisense) [Compound 1197316] — lower, 46 % UT

Same assay, conditions: Table 52; Yap1 mRNA, modified oligonucleotides targeting SEQ ID NO: 1 and 2

Point of comparison: “1200873 (kT*kT*kA*dG*dA*mC*dT*dA*dA*dG*dT*dA*dA*kG*kG*kT; antisense) [Compound 1200873]”, “YAP1 (% UT)” value 55 % UT. Against it:
- 1200837 (kA*kT*kT*d[5mC]*dA*mG*dA*dT*dT*dT*dA*dG*dG*kA*kT*kG; antisense) [Compound 1200837] — higher, 82 % UT

Same assay, conditions: Yap1 mRNA, percent of untreated control; modified oligonucleotides targeting SEQ ID NO: 1 and 2; Table 47

Point of comparison: “1197197 (antisense kT*k[5mC]*kA*dG*dA*dT*dT*dT*dA*dG*dG*dA*dT*kG*k[5mC]*kA) [Compound 1197197]”, “YAP1 (% UT)” value 20 % UT. Against it:
- 1197227 (antisense kT*kT*kA*dG*dA*d[5mC]*dT*dA*dA*dG*dT*dA*dA*kG*kG*kT) [Compound 1197227] — higher, 64 % UT
- 1197224 (antisense kA*k[5mC]*kT*dA*dA*dG*dT*dA*dA*dG*dG*dT*dT*kT*k[5mC]*k[5mC]) [Compound 1197224] — higher, 24 % UT
- 1009325 (kA*kG*kA*dG*dT*dA*dT*dG*dT*dG*dG*d[5mC]*dA*kA*kT*kA; antisense) [Compound 1009325] — lower, 16 % UT
- 1197186 (antisense kT*kT*kA*dA*dG*d[5mC]*dA*d[5mC]*dT*dT*dT*dT*dA*k[5mC]*kA*kT) [Compound 1197186] — higher, 65 % UT
